The values below come from US9708255B2, “(bis)urea and (bis)thiourea compounds as epigenic modulators of lysine-specific demethylase 1 and methods of treating disorders” (priority 2009, dated 2017).

Molecules are shown by their SMILES.

For one experiment, the target named is recombinant human LSD1 (Homo sapiens, UniProt O60341). Put plainly: LSD1 demethylase assay, luminol-dependent chemiluminescence (H2O2 production). The settings on record: read-out: % LSD1 activity remaining, treatment with each analogue at 10 μM.
The target in experiment [1] is recombinant LSD1/CoRest complex (Homo sapiens, UniProt O60341). To be noted: cited from earlier work.
Experiment [2] relates to global H3K4me2. The settings on record: P19 cell line; cited from earlier work.
The subject of experiment [3] is global H3K4me2. Put plainly: Global H3K4me2 in HCT116 human colon tumor cells. The experiment is classed as cell-based. The settings on record: HCT116 human colon tumor cells (data not shown).
In experiment [4] the test system is global H3K4me2. Briefly: Global H3K4me2 level by quantitative Western blot in Calu-6 cells. The format is cell-based, human. To be noted: Calu-6, 10 μM. Here is the method: (§1) FIG. 2. Effect of compounds 25-27 on the expression of global H3K4me1 and H3K4me2. […] Proliferating cell nuclear antigen (PCNA) was used as a loading control. Shown are Western blot images from a single representative experiment performed in triplicate. Relative protein expression levels were determined by quantitative Western analysis using the Odyssey infrared detection system shown as bar graphs. The results represent the mean of three treatments ±SD. The protein expression level for control samples was set to a value of 1.
(§2) The ability of the target (bis)ureas and (bis)thioureas to inhibit LSD1 was determined in an assay procedure utilizing the recombinant human enzyme. Expression and purification of LSD1 were conducted as previously reported. Enzymatic activity of LSD1 in the presence of target compounds was determined using luminol-dependent chemiluminescence to measure the production of H2O2, as previously described. The results of these experiments are summarized in Table 1, and graphically in FIG. 1. […] Subsequent experiments were conducted in the Calu-6 human anaplastic non-small cell lung carcinoma line because it has a highly reproducible response to epigenetic modulation, and because it is known that various tumor suppressor genes are silenced in this line. In order for synthetic analogues to be effective at the cellular level, any observed decreases in cellular LSD1 activity should be accompanied by an increase in global H3K4me1 and H3K4me2 content. […] The reduction in H3K4me2 and corresponding increase in H3K4me1 by 26 at both 24 and 48 hours cannot be readily explained, and is the subject of continuing investigation.
(§3) Cytoplasmic and nuclear fractions were prepared for Western blot analysis using the NE-PER™ Nuclear and Cytoplasmic Extraction Kit (Pierce, Rockford, Ill.). Primary antibodies against H3K4me2 were from Millipore. The pCNA monoclonal antibody was purchased from Oncogene Research Products (Cambridge, Mass.). Dye-conjugated secondary antibodies were used for quantification of Western blot results using the Odyssey Infrared Detection system and software (LI-COR Biosciences, Lincoln, Nebr.).
(Immunoblotting shows a protein as a band on a membrane.)

The next experiment deals with global H3K4me1. Briefly: Global H3K4me1 level by quantitative Western blot in Calu-6 cells. The experiment is classed as cell-based, human. To be noted: Calu-6, 10 μM. On the procedure: as §1, §2, §3
A further experiment deals with SFRP2 mRNA. Briefly: Re-expression of SFRP2 mRNA by qPCR in Calu-6 cells. The format is cell-based, human. The settings on record: Calu-6, 24 hours; for dose dependence of SFRP2 expression increase: 5 vs 10 μM. An excerpt:
(§4) The ability of compounds 25-27 to induce the re-expression of aberrantly silenced tumor suppressor genes in vitro was next measured using the Calu-6 human lung carcinoma cell line. The tumor suppressor genes SFRP2 and GATA4 were chosen because they are known to be under expressed in human lung cancer, and because they are thought to play a role in tumorigenesis when silenced. Thus, the genes coding for these proteins are well-documented LSD1 targets. […]. […]. The increase in GATA4 mRNA caused by […] 27 is reproducible, but is not statistically significant (P>0.05).
(§5) RNA was extracted using TRIzol reagents (Invitrogen, Carlsbad, Calif.). First-strand cDNA was synthesized using SuperScript III reverse transcriptase with an oligo(dT) primer (Invitrogen). qPCR was performed using the following primers: SFRP2 sense, 5′AAGCCTGCAAAAATAAAAATGATG; SFRP2 antisense, 5′TGTAAATGGTCTTGCTCTTGGTCT (annealing at 57.4° C.); GATA4 sense, 5′GGCCGCCCGACACCCCAATCT; GATA4 antisense, 5′ ATAGTGACCCGTCCCATCTCG (annealing at 64° C.). qPCR was performed in a MyiQ single color real-time PCR machine (Bio-Rad, Hercules, Calif.) with GAPDH as an internal control.
A general note: Real-time PCR tracks product formation cycle by cycle.

The next experiment deals with GATA4 mRNA. Briefly: Re-expression of GATA4 mRNA by qPCR in Calu-6 cells. The experiment is classed as cell-based, human. To be noted: Calu-6, 24 hours; for effect on GATA4 levels: 5 and 10 μM.
Source text: as §4, §5

Method for recombinant human LSD1: Percent of LSD1 activity remaining was determined following 24-hour treatment with 10 mM of each test compound as determined by the luminol-dependent chemiluminescence method.
The ability of the target (bis)ureas and (bis)thioureas to inhibit LSD1 was determined in an assay procedure utilizing the recombinant human enzyme. Expression and purification of LSD1 were conducted as previously reported. Enzymatic activity of LSD1 in the presence of target compounds was determined using luminol-dependent chemiluminescence to measure the production of H2O2, as previously described. […] Full-length human LSD1 cDNA was subcloned into the pET15b bacterial expression vector (Novagen, Madison, Wis.) in frame with an N-terminal 6×HIS-tag and transformed into the BL21(DE3) strain of Escherichia coli. Following selection, expression and purification of recombinant LSD1 protein were performed as previously described. Briefly, expression of LSD1-HIS protein was induced by 1 mM IPTG for 6 h at 25° C. The HIS-tagged protein was purified using Ni-NTA affinity purification resin and column as recommended by the manufacturer (Qiagen, Valencia, Calif.). Bound protein was eluted by imidazole and the eluate was dialyzed in PBS at 4° C. […] The integral values were calibrated against standards containing known concentrations of H2O2, and the activities expressed as pmols H2O2/mg protein/min. […]

Turning to `S=C(NCCCNCCCNCCCNC(=S)NCCC(c1ccccc1)c1ccccc1)NCCC(c1ccccc1)c1ccccc1` [Compound 20, 1,11-bis-{3-[1-(3,3-diphenylpropyl)thioureado]}-4,8-diazaundecane], the remaining activity at 10 µM on recombinant human LSD1 was 92.2%.
With `NNCCc1ccccc1` [phenelzine], in experiment [1], the nucleosomal demethylation result is “inactivate”. Moreover, in the experiment on global H3K4me2 [2], the “global levels of H3K4me2” value is on record as “increase”.
As to `N[C@@H]1C[C@H]1c1ccccc1` (racemic) [tranylcypromine], the “global levels of H3K4me2” value in the experiment with global H3K4me2 [2] is “increase”.
`O=C(NCCCNCCCCNCCCNC(=O)NC(=O)N(c1ccccc1)c1ccccc1)NC(=O)N(c1ccccc1)c1ccccc1` [Compound 31, 1,12-bis-{5-[1-(N,N-diphenyl)carbamyl]ureado}-4,9-diazadodecane]: at recombinant human LSD1, the remaining activity at 10 µM is 26.1%.
On to `S=C(NCCCNCCCCCCCNCCCNC(=S)NCC(c1ccccc1)c1ccccc1)NCC(c1ccccc1)c1ccccc1` [Compound 25, 1,15-bis-{3-[1-(2,2-diphenylethyl)thioureado]}-4,12-diazapentadecane], for which the “increase in global H3K4me2” value in the experiment with global H3K4me2 [3] came to 17.4 fold. Also, the “global H3K4me2 level” value in the experiment with global H3K4me2 [4] (24 hours) is “significant increases”; in the experiment on global H3K4me2 [4] (48 hours), “most dramatic increases”. Further, the “global H3K4me1 level” value with global H3K4me1 (24 hours) is listed as “significant increases”; in the experiment on global H3K4me1 (48 hours) it was “most dramatic increases”. For the same compound, the “dose dependence of SFRP2 expression increase” value in the experiment on SFRP2 mRNA is on record as “dose dependent”. For the same compound, the “effect on GATA4 levels” value in the experiment with GATA4 mRNA is “did not produce significant increases”.
Consider `S=C(NCCCNCCCCNCCCNC(=S)NCC(c1ccccc1)c1ccccc1)NCC(c1ccccc1)c1ccccc1` [Compound 26, 1,12-bis-{3-[1-(2,2-diphenylethyl)thioureado]}-4,9-diazadodecane], for which the “global H3K4me2 level” value with global H3K4me2 [4] (24 hours) is reported as “decreased”; in the experiment with global H3K4me2 [4] (48 hours), “reduction”. For the same compound, the “global H3K4me1 level” value with global H3K4me1 (24 hours) was “significant increase”; with global H3K4me1 (48 hours), “increase”. In addition, the “dose dependence of SFRP2 expression increase” value with SFRP2 mRNA is on record as “same level”. In the experiment on GATA4 mRNA, the “effect on GATA4 levels” value is recorded as “did not produce significant increases”.
`S=C(NCCCNCCCNCCCNC(=S)NCC(c1ccccc1)c1ccccc1)NCC(c1ccccc1)c1ccccc1` [Compound 27, 1,11-bis-{3-[1-(2,2-diphenylethyl)thioureado]}-4,8-diazaundecane]: in the experiment with global H3K4me2 [4] (24 hours), the “global H3K4me2 level” value is “significant increases”. Further, the “global H3K4me1 level” value with global H3K4me1 (24 hours) is on record as “significant increases”. Moreover, the “increase in SFRP2 expression” value with SFRP2 mRNA (10 mM (so in the source)) amounted to 4.8 fold. In addition, in the experiment with SFRP2 mRNA, the “dose dependence of SFRP2 expression increase” value was “dose dependent”. Besides, the “effect on GATA4 mRNA” value with GATA4 mRNA (5 μM) was “no significant effect”. Besides, the “increase in GATA4 mRNA” value in the experiment with GATA4 mRNA (10 μM (b97 prints 10 mM)) is on record as 1.3 fold.

Usually remaining activity stands for the share of the control activity or signal that is left under treatment.
